The numbers were not newly measured in patent publication US20200113803A1, “ANHYDROUS COMPOSITION OF SMALL-MOLECULE POLYSACCHARIDES AND APPLICATION THEREOF” (SAGE PHARMACEUTICALS, INC., priority 2016, published 2020), which cites them from elsewhere.

For the data set the following is noted: background statement.

With Hyaluronic acid [HA], the “ability of HA to hold water” value is recorded as “up to 1000 ml water for 1 g of HA”.
